The source of these data is patent publication US4962107A, “Agent for cerebral protection” (Kyowa Hakko Kogyo Kabushiki Kaisha, priority 1985, dated 1990).

The nature of series [1]: Test for acute toxicity (LD50, oral, 7 days). Conditions: mouse, in vivo, mice, deaths within 7 days, 5 mice per group. How it is done:
Mice (ddY strain; male; body weight 21-23 g) were used as test animals. Each group consisted of 5 mice. The test compound was orally administered to each mouse. During the test period of 7 days after the administration, the number of deaths in each group was counted to calculate the LD50. All animals were bred in a breeding room, maintained at a temperature of 23°±2° C. and a humidity of 55-60%. These animals were given a solid feed "F-2" (commercial product of Funabashi Nojo) and city water ad libitum.

Series [2] concerns mice subjected to normobaric hypoxia. Nature of the series: Effects on survival time of mice subjected to normobaric hypoxia. The format is in vivo, mouse (ddY strain; male). Conditions: 50 mg/kg oral, 2 h before; 96% nitrogen/4% oxygen; protected = alive 10 or more minutes. The procedure:
Mice (ddY strain; male; body weight 20-22 g) were used as test animals. Each group consisted of 10 or more mice. A test compound (50 mg/kg) was orally administered to each mouse.
Then each animal was put into a glass cylinder (capacity: 700 ml) and a mixture of nitrogen (96%) and oxygen (4%) was passed through the cylinder at a velocity of 5 1 /min and expelled through a hole in the side wall. The time from the start of the gas mixture supply to the cessation of respiratory motion was measured, and animals which remained alive for 10 or more minutes were evaluated as "protected". Among 50 untreated animals, no animal remained alive. In use, the test compound was suspended in an aqueous solution of carboxymethylcellulose sodium (0.3%).

Series [3] has as its system mice subjected to hypobaric hypoxia. Nature of the series: Effects on survival time of mice subjected to hypobaric hypoxia. The format is in vivo, mouse (ddY strain; male). Conditions: 30 mg/kg oral, 2 h before; 150 mmHg; mean ± S.E.; *P < 0.05, **P < 0.001 vs control. How it is done:
Mice (ddY strain; male; body weight 20-22 g) were used as test animals. Each group consisted of 10 or more mice. A test compound (30 mg/kg) was orally administered to each mouse. Two hours after the administration, each animal was put into a desiccator (capacity: 9 l), and the inside pressure of the desiccator was reduced to 150 mmHg over a period of 52-55 seconds. The time from the start of the pressure reduction to the cessation of respiratory motion was measured. Survival time of the compound-administered group and that of the control group were compared by t-test.

Series [4] concerns mice subjected to anaemic hypoxia. Nature of the series: Effects on survival time of mice subjected to anaemic hypoxia (NaNO2). It counts as in vivo, mouse (ddY strain; male). Conditions: 30 mg/kg oral, 2 h before; NaNO2 225 mg/kg s.c.; mean ± S.E.; *P < 0.05, **P < 0.001 vs control. The procedure:
(Hypoxia induced by NaNO2 administration to convert haemoglobin to methemoglobin)
Mice (ddY strain; male; body weight 20-22 g) were used as test animals. Each group consisted of 10 or more mice. A test compound (30 mg/kg) was orally administered to each mouse. Two hours after the administration, NaNO2 (225 mg/kg) was subcutaneously administered to each mouse. The time from the NaNO2 administration to death was measured. Survival time of the compound-administered group and that of the control group were compared by t-test.

In series [5] the test system is decapitated heads of mice. Nature of the series: Effect on time of gasping persistence by decapitated heads of mice. The format is in vivo, mouse (ddY strain; male). Conditions: 30 mg/kg oral, 2 h before decapitation; mean ± S.E.; **P < 0.001 vs control. The procedure: Mice (ddY strain; male; body weight 20-22 g) were used as test animals. Each group consisted of 10 or more mice. A test compound (30 mg/kg) was orally administered to each mouse. Two hours after the administration, each animal was decapitated, and the time from the decapitation to the cessation of gasping was measured. Time of gasping persistence of the treated group and that of the control group were compared by t-test.

For series [6], the system named is cerebral ischaemia or cerebral hypoxia. Conditions: cited from literature; cited from earlier work.
Series [7] is described as follows: Acute toxicity (general statements, comparison with nizofenone). Conditions: in vivo, po; per os; species and method not stated at this place.
For series [8] the following is noted: cited from literature / background; cited from earlier work.

In turn, `CC1CCCCN1C(=O)C=Cc1ccc(C(F)(F)F)cc1` (stereo not drawn) [Compound 1, 2-methyl-1-(4-trifluoromethylcinnamoyl) piperidine] registered an LD50 at 168 h in series [1] of over 1010 mg/kg. Moreover, the “A/B (number of animals surviving / number of animals tested)” value in series [2] was 10/10. Besides, the “Survival Time” value in series [3] amounted to 582.8 ± 12.1 s; in series [4], 64.9 ± 5.5 min. Moreover, the “Persistence Time (gasping)” value in series [5] was 39.1 ± 1.4 s.
As to `CC1COCCN1C(=O)C=Cc1ccc(C(F)(F)F)cc1` (stereo not drawn) [Compound 2, 3-methyl-4-(4-trifluoromethylcinnamoyl) morpholine], the LD50 at 168 h in series [1] was 675 to 1010 mg/kg. Also, the “A/B (number of animals surviving / number of animals tested)” value in series [2] is listed as 8/10.
`CC1CCCCN1C(=O)C=Cc1ccc(Cl)cc1` (stereo not drawn) [Compound 3, 2-Methyl-1-(4-chlorocinnamoyl) piperidine]: the LD50 at 168 h in series [1] is over 1010 mg/kg. Further, in series [2], the “A/B (number of animals surviving / number of animals tested)” value is 9/10. For the same compound, the “Survival Time” value in series [3] was 172.4 ± 11.3 s; in series [4] it was 47.7 ± 5.5 min. For the same compound, the “Persistence Time (gasping)” value in series [5] was found to be 30.2 ± 1.1 s.
Regarding `CC1CCCCN1C(=O)C=Cc1ccc(F)cc1` (stereo not drawn) [Compound 4, 2-Methyl-1-(4-fluorocinnamoyl) piperidine], in series [1], the LD50 at 168 h was over 1010 mg/kg. The “A/B (number of animals surviving / number of animals tested)” value in series [2] is recorded as 7/20. The “Survival Time” value in series [3] is 126.3 ± 6.9 s; in series [4], 58.4 ± 5.5 min. Besides, the “Persistence Time (gasping)” value in series [5] stood at 23.5 ± 0.8 s.
Compound `CC1CCCC(C)N1C(=O)C=Cc1ccc(C(F)(F)F)cc1` (stereo not drawn) [Compound 5, 2,6-Dimethyl-1-(4-trifluoromethylcinnamoyl) piperidine] yielded a median lethal dose (LD50) at 168 h in series [1] of over 1010 mg/kg. The “A/B (number of animals surviving / number of animals tested)” value in series [2] is 15/20.
Compound `O=C(C=Cc1ccc(F)cc1)N1CCOCC1` [Compound 6, 4-(4-Fluorocinnamoyl) morpholine] registered an LD50 at 168 h in series [1] of over 1010 mg/kg. The “A/B (number of animals surviving / number of animals tested)” value in series [2] is reported as 2/10.
`O=C(C=Cc1ccc(C(F)(F)F)cc1)N1CCOCC1` [Compound 7, 4-(4-Trifluoromethylcinnamoyl) morpholine]: in series [1], the LD50 at 168 h lay within 300 to 450 mg/kg. Further, the “A/B (number of animals surviving / number of animals tested)” value in series [2] was 4/10.
Turning to `CC1CCN(C(=O)C=Cc2ccc(C(F)(F)F)cc2)CC1` [Compound 8, 4-Methyl-1-(4-trifluoromethylcinnamoyl) piperidine], the LD50 at 168 h in series [1] was over 1010 mg/kg. In addition, the “A/B (number of animals surviving / number of animals tested)” value in series [2] was 5/20.
Take `O=C(C=Cc1ccc(C(F)(F)F)cc1)N1CCCCC1CO` (stereo not drawn) [Compound 9, 2-Hydroxymethyl-1-(4-trifluoromethylcinnamoyl) piperidine]: the “A/B (number of animals surviving / number of animals tested)” value in series [2] is on record as 2/10.
Turning to `O=C(C=Cc1ccc(C(F)(F)F)cc1)N1CCC(O)CC1` [Compound 10, 4-Hydroxy-1-(4-trifluoromethylcinnamoyl) piperidine], the “A/B (number of animals surviving / number of animals tested)” value in series [2] was 2/10.
Consider `O=C(C=Cc1ccc(C(F)(F)F)cc1)N1CCSCC1` [Compound 11, 4-(4-Trifluoromethylcinnamoyl) thiomorpholine], for which the “A/B (number of animals surviving / number of animals tested)” value in series [2] is given as 7/10.
Take `O=C(C=Cc1ccc(C(F)(F)F)cc1)N1CC[S+]([O-])CC1` [Compound 12, 4-(4-trifluoromethylcinnamoyl) thiomorpholine-1-oxide]: the “A/B (number of animals surviving / number of animals tested)” value in series [2] is 8/10.
`O=C(C=Cc1ccc(C(F)(F)F)cc1)N1CCS(=O)(=O)CC1` [Compound 13, 4-(4-trifluoromethylcinnamoyl) thiomorpholine-1,1-dioxide]: in series [2], the “A/B (number of animals surviving / number of animals tested)” value is 6/10.
`O=C(C=Cc1ccc(Cl)cc1)N1CCCCC1` [Compound 14, 1(4-chlorocinnamoyl) piperidine] came in with an LD50 at 168 h in series [1] of over 1010 mg/kg. The “A/B (number of animals surviving / number of animals tested)” value in series [2] is recorded as 4/10.
For `O=C(C=Cc1ccc(Cl)c(Cl)c1)N1CCOCC1` [Compound 15, 4(3,4-dichlorocinnamoyl) morpholine], in that order: 450 to 675 mg/kg and 5/10.
Consider `O=C(C=Cc1ccc(Cl)cc1)N1CCOCC1` [Compound 16, 4(4-chlorocinnamoyl) morpholine], for which, in series [1], the LD50 at 168 h fell in the range of 675 to 1010 mg/kg. In addition, in series [2], the “A/B (number of animals surviving / number of animals tested)” value is given as 5/10.
As for `CCC1(c2ccccc2)C(=O)NC(=O)N(C)C1=O` (stereo not drawn) [mephobarbital], in series [6], the “cerebral protective effect (literature)” value is recorded as “have a cerebral protective activity”.
Take `CCN(CC)Cc1nccn1-c1ccc([N+](=O)[O-])cc1C(=O)c1ccccc1Cl.O=C(O)/C=C/C(=O)O` [nizofenone, 1-[2-(2-chlorobenzoyl)-4-nitrophenyl]-2-(diethylaminomethyl)imidazole fumarate]: the LD50 in series [7] lay in the range of 450 to 675 mg/kg. Also, the “cerebral protective effect (literature)” value in series [6] was “has a cerebral protective effect against cerebral ischaemia or cerebral hypoxia, similar to that of barbiturates”. Also, the “anesthetic or respiration-suppressing action, side effects (literature)” value in series [8] is “does not exhibit an anesthetic or respiration-suppressing action”.
Take `CCCC(C)C1(CC)C(=O)NC(=O)NC1=O` (stereo not drawn) [pentobarbital]: in series [6], the “cerebral protective effect (literature)” value is “have a cerebral protective activity”.
As for `CCCC(C)C1(CC)C(=O)NC(=S)NC1=O` (stereo not drawn) [thiopental], the “cerebral protective effect (literature)” value in series [6] is “have a cerebral protective activity”.

A word on the LD50: it is the dose expected to kill half of the subjects tested. A low value points to greater toxicity.
